The record followed here is patent publication US5958983A, “Polyaromatic antiviral compositions” (Pharmacia & Upjohn Company, priority 1998, dated 1999).

Test [1] has as its system HSV-1. Kind of test: Inhibition of HSV-1 viral replication (virus yield reduction assay, Vero cells). Type of test: cell-based, herpes simplex virus type-1. The note with it: 14-16 hours. As for the experimental part:
(§1) Compounds of the formulas II and III of the present invention are evaluated in an assay to measure the inhibition of HSV-1 viral replication in the presence of drug over a 14-16 hour period. The assay is discussed in detail by Pritchard, M. N. et al. "A Microliter Virus Yield Reduction Assay for the Evaluation of Antiviral Compounds Against Human Cytomegalovirus and Herpes Simplex Virus", J. Virol. Meth., Vol. 28, pp 101-106 (1990). Briefly, 80% confluent monolayers of Vero cells in 24 well plates are infected with low multiplicities of HSV-1 (MOI=0.001). After an absorption period of 1 hour at 37° C., the monolayers are rinsed with culture media and aliquots of compounds diluted into tissue culture media are added for 14-16 hours at 37° C. in a CO2 atmosphere. The growth media is removed and 1 ml of fresh media is added to each well and plates are placed at -70° C. After a 1-5 day storage period the plates are rapidly thawed, samples are collected on ice and titrated on fresh Vero cell monolayers. Viral plaques are stained with 0.1% crystal violet in 20% alcohol for 10 minutes and are counted. Data are calculated to reflect the percentage of inhibition at indicated concentration relative to infected, non-drug treated controls.
(§2) In the Tables, the sign "+++" refers to >90% inhibition at the indicated concentration. The sign "++" refers to >50% inhibition at the indicated concentration. The sign "+" refers to <50% inhibition at the indicated concentration. The sign "-" refers that no inhibitory activity is observed at the indicated concentration. A blank cell means the datum is not available.

Test [2] has as its system VZV. Kind of test: Inhibition of VZV replication (plaque reduction, HFF cells). Type of test: cell-based, varicella zoster virus. The note with it: five days. How it is done:
Antiviral activity against VZV are evaluated in an assay to measure the reduction of viral replication in the number viral plaques formed over five days of incubation in the presence of compounds of the present invention. Aliquots of VZV are added for 90 minutes to 24 well plates having HFF cells at 80% confluence to yield approximately 25 plaques for media treated wells. The plates are flicked and dilutions of compounds in tissue culture media at 2 time strength are added (0.5 ml per well). Immediately following the addition of drug 0.5 ml of 1.0% agarose is added to the wells and the plates are gently tapped to aid mixing. This final concentration of agarose (0.5%) is […] to solidify at 37° C. and serves as a semi solid overlay medium. Plates are undisturbed for five days. On day 5 the plates are examined microscopically for toxicity and plaques are counted using low power microscopy.
as §2

Test [3] deals with HSV-2. Kind of test: Inhibition of HSV-2 viral replication (substantially same assay as HSV-1). The test is classed as cell-based, herpes simplex virus type-2. The note with it: 14-16 hours. As for the experimental part:
as §1
Compounds of the formulas II and III of the present invention are also evaluated in substantially the same assay as described above to measure the inhibition of HSV-2 viral replication.
as §2

`Cc1ccc(NC(=S)Nc2ccc(Cl)cc2)cc1NC(=S)Nc1ccc(Cl)cc1` [Example 1, N,N"-(4-methyl-1,3-phenylene)bis[N'-(4-chlorophenyl)thiourea]]: in test [1], the “% Inhibition Against HSV-1 Viral Replication, 5 μm” value is listed as “- (no inhibitory activity is observed at the indicated concentration)” and the “% Inhibition Against HSV-1 Viral Replication, 30 μm” value is listed as “+ (<50% inhibition at the indicated concentration)”.
With `COc1ccc(NC(=O)Nc2ccc(Cl)cc2)cc1NC(=O)Nc1ccc(Cl)cc1` [Example 3, N,N"-(4-methoxy-1,3-phenylene)bis[N'-(4-chlorophenyl)urea]], in test [1], the “% Inhibition Against HSV-1 Viral Replication, 5 μm” value was “+ (<50% inhibition at the indicated concentration)” and the “% Inhibition Against HSV-1 Viral Replication, 30 μm” value is listed as “+ (<50% inhibition at the indicated concentration)”.
As to `COc1ccc(NC(=O)Nc2ccc(C)cc2)cc1NC(=O)Nc1ccc(C)cc1` [Example 4, N,N"-(4-methoxy-1,3-phenylene)bis[N'-(p-tolyl)urea]], in test [1], the “% Inhibition Against HSV-1 Viral Replication, 5 μm” value is “+ (<50% inhibition at the indicated concentration)” and the “% Inhibition Against HSV-1 Viral Replication, 30 μm” value is “+ (<50% inhibition at the indicated concentration)”.
With `COc1ccc(NC(=S)Nc2ccc(Cl)cc2)cc1NC(=S)Nc1ccc(Cl)cc1` [Example 6, N,N"-(4-methoxy-1,3-phenylene)bis[N'-(4-chlorophenyl)thiourea]], in test [1], the “% Inhibition Against HSV-1 Viral Replication, 5 μm” value is listed as “- (no inhibitory activity is observed at the indicated concentration)” and the “% Inhibition Against HSV-1 Viral Replication, 30 μm” value is “+ (<50% inhibition at the indicated concentration)”.
The corresponding values for `COc1cccc(NS(=O)(=O)c2ccc(Oc3ccc(S(=O)(=O)Nc4cccc(OC)c4)cc3)cc2)c1` [Example 9, bis[N-(3-methoxyphenyl)aminosulfonyl](oxydi-4,1-phenylene)] are “+ (<50% inhibition at the indicated concentration)” and “+++ (>90% inhibition at the indicated concentration)”.
The corresponding values for `Cc1ccc(NS(=O)(=O)c2cccc(S(=O)(=O)Nc3ccc(C)cc3)c2)cc1` [Example 10, N,N"-(1,3-phenylene)bis[N-(p-tolyl)aminosulfonyl]] are “+ (<50% inhibition at the indicated concentration)” and “++ (>50% inhibition at the indicated concentration)”.
In the case of `Cc1cccc(NS(=O)(=O)c2ccc(Oc3ccc(S(=O)(=O)Nc4cccc(C)c4)cc3)cc2)c1` [Example 11, bis[N-(3-methylphenyl)aminosulfonyl](oxydi-4,1-phenylene)], in test [1], the “% Inhibition Against HSV-1 Viral Replication, 5 μm” value is given as “- (no inhibitory activity is observed at the indicated concentration)” and the “% Inhibition Against HSV-1 Viral Replication, 30 μm” value is given as “++ (>50% inhibition at the indicated concentration)”.
As for `N=C(Nc1ccc(Cc2ccc(NC(=N)c3ccccc3)cc2)cc1)c1ccccc1` [Example 13, N,N"-(methylenedi-4,1-phenylene)bis [benzenecarboximidamide]], the “% Inhibition Against VZV Viral Replication, 2 μm” value in test [2] is “+ (<50% inhibition at the indicated concentration)”. Also, in test [3], the “% Inhibition Against HSV-2 Viral Replication, 1 μm” value was “+ (<50% inhibition at the indicated concentration)” and the “% Inhibition Against HSV-2 Viral Replication, 10 μm” value was “+++ (>90% inhibition at the indicated concentration)”. In addition, in test [1], the “% Inhibition Against HSV-1 Viral Replication, 5 μm” value is on record as “+ (<50% inhibition at the indicated concentration)” and the “% Inhibition Against HSV-1 Viral Replication, 30 μm” value is recorded as “+++ (>90% inhibition at the indicated concentration)”.
`S=C(NCCc1ccccc1)Nc1ccc(Oc2ccc(NC(=S)NCCc3ccccc3)cc2)cc1` [Example 15, N,N"-(oxydi-4,1-phenylene)bis[N'-(2-phenylethyl)thiourea]]: the “% Inhibition Against VZV Viral Replication, 2 μm” value in test [2] is reported as “+++ (>90% inhibition at the indicated concentration)”. Moreover, in test [3], the “% Inhibition Against HSV-2 Viral Replication, 1 μm” value is listed as “+ (<50% inhibition at the indicated concentration)” and the “% Inhibition Against HSV-2 Viral Replication, 10 μm” value was “+ (<50% inhibition at the indicated concentration)”. In addition, in test [1], the “% Inhibition Against HSV-1 Viral Replication, 5 μm” value is on record as “+ (<50% inhibition at the indicated concentration)” and the “% Inhibition Against HSV-1 Viral Replication, 30 μm” value is reported as “+ (<50% inhibition at the indicated concentration)”.
As for `O=C(Nc1ccc(Oc2ccc(NC(=O)c3ccco3)cc2)cc1)c1ccco1` [Example 16, N,N"-(oxydi-4,1-phenylene)bis(2-furancarboxamide)], in test [1], the “% Inhibition Against HSV-1 Viral Replication, 5 μm” value was “+ (<50% inhibition at the indicated concentration)” and the “% Inhibition Against HSV-1 Viral Replication, 30 μm” value is listed as “++ (>50% inhibition at the indicated concentration)”.
On to `O=S(=O)(c1ccc(OCc2ccc(Cl)cc2)cc1)c1ccc(OCc2ccc(Cl)cc2)cc1` [Example 17, bis(4-chlorobenzyloxy)(sulfonyldi-4,1-phenylene)], for which the “% Inhibition Against VZV Viral Replication, 2 μm” value in test [2] is “++ (>50% inhibition at the indicated concentration)”. In test [3], the “% Inhibition Against HSV-2 Viral Replication, 1 μm” value was “++ (>50% inhibition at the indicated concentration)” and the “% Inhibition Against HSV-2 Viral Replication, 10 μm” value is listed as “++ (>50% inhibition at the indicated concentration)”. Besides, in test [1], the “% Inhibition Against HSV-1 Viral Replication, 5 μm” value is listed as “+ (<50% inhibition at the indicated concentration)” and the “% Inhibition Against HSV-1 Viral Replication, 30 μm” value is reported as “++ (>50% inhibition at the indicated concentration)”.
Regarding `O=S(=O)(c1ccc(OCc2ccc(Br)cc2)cc1)c1ccc(OCc2ccc(Br)cc2)cc1` [Example 18, bis(4-bromobenzyloxy)(sulfonyldi-4,1-phenylene)], the “% Inhibition Against VZV Viral Replication, 10 μm” value in test [2] (10 μm) is “+++ (>90% inhibition at the indicated concentration)”. In addition, in test [1], the “% Inhibition Against HSV-1 Viral Replication, 5 μm” value is recorded as “+ (<50% inhibition at the indicated concentration)” and the “% Inhibition Against HSV-1 Viral Replication, 30 μm” value is reported as “++ (>50% inhibition at the indicated concentration)”.
With `O=S(=O)(c1ccc(OCc2ccncc2)cc1)c1ccc(OCc2ccncc2)cc1` [Example 19, bis [(4-pyridyl)methoxy](sulfonyldi-4,1-phenylene)], in test [1], the “% Inhibition Against HSV-1 Viral Replication, 5 μm” value is listed as “+ (<50% inhibition at the indicated concentration)” and the “% Inhibition Against HSV-1 Viral Replication, 30 μm” value is “+ (<50% inhibition at the indicated concentration)”.
`O=S(=O)(c1ccc(OCc2ccc(F)cc2)cc1)c1ccc(OCc2ccc(F)cc2)cc1` [Example 20, bis(4-fluorobenzyloxy)(sulfonyldi-4,1-phenylene)]: in test [1], the “% Inhibition Against HSV-1 Viral Replication, 5 μm” value is reported as “+ (<50% inhibition at the indicated concentration)” and the “% Inhibition Against HSV-1 Viral Replication, 30 μm” value is recorded as “++ (>50% inhibition at the indicated concentration)”.
As for `O=[N+]([O-])c1ccc(COc2ccc(S(=O)(=O)c3ccc(O)cc3)cc2)cc1` [Example 21, hydroxy(4-nitrobenzyloxy)(sulfonyldi-4,1-phenylene)], in test [1], the “% Inhibition Against HSV-1 Viral Replication, 5 μm” value is “- (no inhibitory activity is observed at the indicated concentration)” and the “% Inhibition Against HSV-1 Viral Replication, 30 μm” value is “++ (>50% inhibition at the indicated concentration)”.
In the same order, the values of `O=S(=O)(c1ccc(O)cc1)c1ccc(OCc2ccc(Cl)cc2)cc1` [Example 22, (4-chlorobenzyloxy)hydroxy(sulfonyldi-4,1-phenylene)] are “- (no inhibitory activity is observed at the indicated concentration)” and “++ (>50% inhibition at the indicated concentration)”.
